Measured values reported in PubChem BioAssay (NCI).
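In this assay, cells in 96-well plates receive the compound at five concentrations for 48 hours. Endpoints are linearly interpolated between the surrounding concentrations. Here, GI50 denotes the concentration required for 50% inhibition of growth. TGI: total growth inhibition.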

Assays:
Experiment in all cases: inhibition of tumour cell growth, NCI panel, 48 h
[1] = tested on: NCI-H23 lung
[2] = tested on: NCI-H460 lung
[3] = tested on: NCI-H522 lung
[4] = tested on: NCI/ADR-RES ovarian
[5] = tested on: OVCAR-3 ovarian
[6] = tested on: OVCAR-4 ovarian
[7] = tested on: OVCAR-5 ovarian
[8] = tested on: OVCAR-8 ovarian
[9] = tested on: PC-3 prostate
[10] = tested on: RPMI-8226 leukemia
[11] = tested on: RXF 393 renal
[12] = tested on: SF-268 CNS
[13] = tested on: SF-295 CNS
[14] = tested on: SF-539 CNS
[15] = tested on: SK-MEL-2 melanoma
[16] = tested on: SK-MEL-28 melanoma
[17] = tested on: SK-MEL-5 melanoma
[18] = tested on: SK-OV-3 ovarian
[19] = tested on: SN12C renal
[20] = tested on: SNB-19 CNS
[21] = tested on: SNB-75 CNS
[22] = tested on: SR leukemia
[23] = tested on: SW-620 colon
[24] = tested on: T-47D breast
[25] = tested on: TK-10 renal
[26] = tested on: U251 CNS
[27] = tested on: UACC-257 melanoma
[28] = tested on: UACC-62 melanoma
[29] = tested on: UO-31 renal

COc1cc(/C=C/C(=O)c2ccc(NC(=O)CN3CCN(c4cc5c(cc4F)c(=O)c(C(=O)O)cn5C4CC4)CC3)cc2)cc(OC)c1OC
TGI [1]: 4890 nM
GI50 [2]: 497 nM
GI50 [3]: 976 nM
TGI [3]: 3770 nM
GI50 [4]: > 75900 nM
TGI [4]: > 100000 nM
GI50 [5]: 364 nM
TGI [5]: 1370 nM
GI50 [6]: 1380 nM
TGI [6]: 22300 nM
GI50 [7]: 2960 nM
TGI [7]: > 27100 nM
GI50 [8]: 401 nM
TGI [8]: 26900 nM
GI50 [9]: 782 nM
TGI [9]: > 100000 nM
GI50 [10]: 310 nM
GI50 [11]: 273 nM
TGI [11]: 803 nM
GI50 [12]: 1090 nM
TGI [12]: 20400 nM
GI50 [13]: 980 nM
TGI [13]: 3690 nM
GI50 [14]: 721 nM
TGI [14]: 3030 nM
GI50 [15]: 2210 nM
TGI [15]: 5780 nM
GI50 [16]: 1420 nM
TGI [16]: 12700 nM
GI50 [17]: 871 nM
TGI [17]: 4390 nM
GI50 [18]: 2580 nM
TGI [18]: > 29800 nM
GI50 [19]: 632 nM
TGI [19]: 9010 nM
GI50 [20]: 2710 nM
TGI [20]: > 59500 nM
GI50 [21]: 2410 nM
TGI [21]: > 23900 nM
GI50 [22]: 245 nM
TGI [22]: > 100000 nM
GI50 [23]: 485 nM
GI50 [24]: 1670 nM
TGI [24]: > 57000 nM
GI50 [25]: 1800 nM
TGI [25]: 12900 nM
GI50 [26]: 373 nM
TGI [26]: 1470 nM
GI50 [27]: 1420 nM
TGI [27]: 65400 nM
GI50 [28]: 887 nM
TGI [28]: 3390 nM
GI50 [29]: 1380 nM
TGI [29]: 7780 nM
